Test results as given in PubChem BioAssay AID256 (DTP/NCI, 2004).
Where “and” joins values, the source holds several entries; their conditions need not be identical. Identical values can stand only once. Inconclusive results and toxic doses are left out.

Tested on: CD2F1 mice, L1210 leukemia ip, survival T/C
Experiment: NCI In Vivo Anticancer Drug Screen. Data for tumor model L1210 Leukemia (intraperitoneal) in CD2F1 (CDF1) mice
Conditions: higher = longer survival
In short: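 Read-out first: treated-group measurement over vehicle-control measurement, expressed as a ratio. Animals bore a transplanted tumor line and were dosed with compound or vehicle.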

[1] = endpoint: mean survival time, dose: 100.0 mg/kg/injection, schedule: Q04DX003 (ip), vehicle: saline with Tween-80
[2] = endpoint: mean survival time, dose: 200.0 mg/kg/injection, schedule: Q04DX003 (ip), vehicle: saline with Tween-80
[3] = endpoint: mean survival time, dose: 6.25 mg/kg/injection, schedule: Q01DX009 (ip), vehicle: saline with Tween-80
[4] = endpoint: mean survival time, dose: 12.5 mg/kg/injection, schedule: Q01DX009 (ip), vehicle: saline with Tween-80
[5] = endpoint: mean survival time, dose: 100.0 mg/kg/injection, schedule: Q01DX001 (ip), vehicle: saline
[6] = endpoint: mean survival time, dose: 200.0 mg/kg/injection, schedule: Q01DX001 (ip), vehicle: saline
[7] = endpoint: mean survival time, dose: 400.0 mg/kg/injection, schedule: Q01DX001 (ip), vehicle: saline
[8] = endpoint: mean survival time, dose: 50.0 mg/kg/injection, schedule: Q04DX002 (ip), vehicle: saline with Tween-80
[9] = endpoint: mean survival time, dose: 100.0 mg/kg/injection, schedule: Q04DX002 (ip), vehicle: saline with Tween-80
[10] = endpoint: mean survival time, dose: 200.0 mg/kg/injection, schedule: Q04DX002 (ip), vehicle: saline with Tween-80
[11] = endpoint: mean survival time, dose: 400.0 mg/kg/injection, schedule: Q04DX002 (ip), vehicle: saline with Tween-80
[12] = endpoint: mean survival time, dose: 25.0 mg/kg/injection, schedule: Q01DX009 (ip), vehicle: saline with Tween-80
[13] = endpoint: mean survival time, dose: 50.0 mg/kg/injection, schedule: Q01DX009 (ip), vehicle: saline with Tween-80
[14] = endpoint: mean survival time, dose: 100.0 mg/kg/injection, schedule: Q01DX009 (ip), vehicle: saline with Tween-80
[15] = endpoint: mean survival time, dose: 200.0 mg/kg/injection, schedule: Q01DX009 (ip), vehicle: saline with Tween-80
[16] = endpoint: mean survival time, dose: 400.0 mg/kg/injection, schedule: Q01DX009 (ip), vehicle: saline with Tween-80
[17] = endpoint: mean survival time, dose: 400.0 mg/kg/injection, schedule: Q04DX003 (ip), vehicle: saline with Tween-80
[18] = endpoint: mean survival time, dose: 200.0 mg/kg/injection, schedule: Q01DX001 (ip), vehicle: saline with Tween-80
[19] = endpoint: mean survival time, dose: 25.0 mg/kg/injection, schedule: Q04DX003 (ip), vehicle: saline with Tween-80
[20] = endpoint: mean survival time, dose: 6.25 mg/kg/injection, schedule: Q04DX003 (ip), vehicle: saline with Tween-80
[21] = endpoint: mean survival time, dose: 25.0 mg/kg/injection, schedule: Q01DX005 (ip), vehicle: water
[22] = endpoint: mean survival time, dose: 50.0 mg/kg/injection, schedule: Q01DX005 (ip), vehicle: water
[23] = endpoint: mean survival time, dose: 100.0 mg/kg/injection, schedule: Q01DX001 (ip), vehicle: saline with Tween-80
[24] = endpoint: mean survival time, dose: 400.0 mg/kg/injection, schedule: Q01DX001 (ip), vehicle: saline with Tween-80

CCC(CO)C(C)C (stereo unspecified)
T/C [1]: 97 % of control
T/C [2]: 100 % of control

CN(C)CC[CH2][Sn]([CH3])([CH3])[CH3]
T/C (endpoint: mean survival time, dose: 3.12 mg/kg/injection, schedule: Q01DX009 (ip), vehicle: saline with Tween-80): 104 % of control
T/C [3]: 100 % of control
T/C [4]: 90 % of control

N#CC(=C1CCCCC1)c1ccccc1
T/C (endpoint: mean survival time, dose: 75.0 mg/kg/injection, schedule: Q01DX001 (ip), vehicle: saline): 98 % of control
T/C (endpoint: mean survival time, dose: 150.0 mg/kg/injection, schedule: Q01DX001 (ip), vehicle: saline): 104 % of control
T/C (endpoint: mean survival time, dose: 300.0 mg/kg/injection, schedule: Q01DX001 (ip), vehicle: saline): 96 % of control

c1ccc(-c2ccc(-c3nnn4ccccc34)cc2)cc1
T/C [5]: 107 % of control
T/C [6]: 86 % of control
T/C [7]: 95 % of control

CSc1nc2c(c(=O)[nH]1)CC(=O)N2
T/C (endpoint: median survival time, dose: 50.0 mg/kg/injection, schedule: Q01DX005 (ip), vehicle: saline): 93 % of control
T/C (endpoint: median survival time, dose: 100.0 mg/kg/injection, schedule: Q01DX005 (ip), vehicle: saline): 91 % of control
T/C (endpoint: median survival time, dose: 200.0 mg/kg/injection, schedule: Q01DX005 (ip), vehicle: saline): 98 % of control

O=[N+]([O-])c1cc(-c2nnc(-c3ccc(Cl)c([N+](=O)[O-])c3)o2)ccc1Cl
T/C [8]: 100 % of control
T/C [9]: 100 % of control
T/C [10]: 96 % of control
T/C [11]: 100 % of control

CCCCOC(=O)/C=C(\Br)C(=O)OCCCC
T/C [3]: 92 % of control and 96 % of control
T/C [4]: 94 % of control and 105 % of control
T/C [12]: 95 % of control and 100 % of control
T/C [13]: 100 % of control
T/C [14]: 92 % of control

CS(=O)(=O)N1C(=O)c2ccccc2C1=O
T/C (endpoint: mean survival time, dose: 25.0 mg/kg/injection, schedule: Q04DX002 (ip), vehicle: saline with Tween-80): 101 % of control
T/C [8]: 98 % of control
T/C [9]: 93 % of control

COc1ccc(COC(=O)Oc2ccc(C)cc2)cc1OC
T/C [14]: 100 % of control
T/C [15]: 102 % of control
T/C [16]: 98 % of control

CCOC(=O)C1CNC(=O)C1=O (stereo unspecified)
T/C [5]: 106 % of control
T/C [1]: 100 % of control
T/C [6]: 110 % of control
T/C [2]: 101 % of control
T/C [7]: 106 % of control
T/C [17]: 95 % of control

C=C(C)C1C2CC3(C)C4(CO4)C4OC4C3(O)C1C(=O)O2 (stereo unspecified)
T/C (endpoint: median survival time, dose: 0.25 mg/kg/injection, schedule: Q01DX009 (ip), vehicle: Klucel (hydroxypropylcellulose) (HPC)): 100 % of control
T/C (endpoint: median survival time, dose: 0.5 mg/kg/injection, schedule: Q01DX009 (ip), vehicle: Klucel (hydroxypropylcellulose) (HPC)): 98 % of control
T/C (endpoint: median survival time, dose: 1.0 mg/kg/injection, schedule: Q01DX009 (ip), vehicle: Klucel (hydroxypropylcellulose) (HPC)): 103 % of control
T/C (endpoint: median survival time, dose: 2.0 mg/kg/injection, schedule: Q01DX009 (ip), vehicle: Klucel (hydroxypropylcellulose) (HPC)): 97 % of control

CC(=O)Nc1ncc2ccccc2c1-c1ccc(NC(=O)CN(CCCl)CCCl)cc1
T/C (endpoint: mean survival time, dose: 25.0 mg/kg/injection, schedule: Q04DX003 (ip), vehicle: other): 112 % of control
T/C (endpoint: mean survival time, dose: 50.0 mg/kg/injection, schedule: Q04DX003 (ip), vehicle: other): 116 % of control
T/C (endpoint: mean survival time, dose: 100.0 mg/kg/injection, schedule: Q04DX003 (ip), vehicle: other): 112 % of control
T/C (endpoint: mean survival time, dose: 200.0 mg/kg/injection, schedule: Q04DX003 (ip), vehicle: other): 124 % of control

CC(C)OC(=O)Nc1cc(F)ccc1F
T/C (endpoint: mean survival time, dose: 100.0 mg/kg/injection, schedule: Q01DX009 (ip), vehicle: other): 97 % of control
T/C (endpoint: mean survival time, dose: 200.0 mg/kg/injection, schedule: Q01DX009 (ip), vehicle: other): 94 % of control

CCc1ccc2ccccc2c1N
T/C [13]: 108 % of control
T/C [14]: 110 % of control
T/C [18]: 94 % of control
T/C [15]: 118 % of control

COc1ccc(CCNC(=S)NC(=O)c2cc(OC)c(OC)c(OC)c2)cc1OC
T/C [9]: 87 % of control
T/C [10]: 97 % of control
T/C [11]: 102 % of control

C/C=C1\OC(n2cnc3c(N)ncnc32)C(O)C1O (stereo unspecified)
T/C (endpoint: mean survival time, dose: 12.5 mg/kg/injection, schedule: Q01DX005 (ip), vehicle: distilled water + Tween-80): 101 % of control
T/C (endpoint: mean survival time, dose: 25.0 mg/kg/injection, schedule: Q01DX005 (ip), vehicle: distilled water + Tween-80): 109 % of control
T/C (endpoint: mean survival time, dose: 50.0 mg/kg/injection, schedule: Q01DX005 (ip), vehicle: distilled water + Tween-80): 113 % of control
T/C (endpoint: mean survival time, dose: 50.0 mg/kg/injection, schedule: Q01DX009 (ip), vehicle: distilled water + Tween-80): 112 % of control
T/C (endpoint: mean survival time, dose: 100.0 mg/kg/injection, schedule: Q01DX005 (ip), vehicle: distilled water + Tween-80): 119 % of control
T/C (endpoint: mean survival time, dose: 100.0 mg/kg/injection, schedule: Q01DX009 (ip), vehicle: distilled water + Tween-80): 124 % of control
T/C (endpoint: mean survival time, dose: 200.0 mg/kg/injection, schedule: Q01DX009 (ip), vehicle: distilled water + Tween-80): 157 % of control

COc1ccc(C(CC(=O)c2ccccc2)CC(=O)c2ccccc2)cc1
T/C [12]: 94 % of control
T/C [19]: 101 % of control
T/C [13]: 96 % of control
T/C (endpoint: mean survival time, dose: 50.0 mg/kg/injection, schedule: Q04DX003 (ip), vehicle: saline with Tween-80): 93 % of control
T/C [1]: 87 % of control

O=C(CC(O)(C(F)(F)F)C(F)(F)F)C(Cl)C(O)(C(F)(F)F)C(F)(F)F (stereo unspecified)
T/C (endpoint: mean survival time, dose: 100.0 mg/kg/injection, schedule: Q01DX001 (ip), vehicle: other): 102 % of control

C1CCCC(NC2=NCCO2)CC1
T/C [20]: 98 % of control
T/C (endpoint: mean survival time, dose: 12.5 mg/kg/injection, schedule: Q04DX003 (ip), vehicle: saline with Tween-80): 97 % of control
T/C [19]: 98 % of control

Cc1cc(=O)c(C#N)c(-c2ccccc2)[nH]1
T/C [9]: 96 % of control
T/C [10]: 100 % of control
T/C [11]: 87 % of control

Cc1oc2ccc(NS(=O)(=O)c3ccccc3)cc2c1C(=O)O
T/C [1]: 97 % of control

CC[N+](C)(CC)Cc1ccc([NH-])c([NH-])c1.[Cl][Pt+2][Cl]
T/C (endpoint: mean survival time, dose: 3.13 mg/kg/injection, schedule: Q04DX003 (ip), vehicle: water): 90 % of control
T/C (endpoint: mean survival time, dose: 6.25 mg/kg/injection, schedule: Q04DX003 (ip), vehicle: water): 95 % of control
T/C (endpoint: mean survival time, dose: 12.5 mg/kg/injection, schedule: Q04DX003 (ip), vehicle: water): 94 % of control

CCC1(CC)CO1
T/C [14]: 104 % of control
T/C (endpoint: mean survival time, dose: 100.0 mg/kg/injection, schedule: Q04DX003 (ip), vehicle: saline): 96 % of control
T/C [15]: 93 % of control
T/C (endpoint: mean survival time, dose: 200.0 mg/kg/injection, schedule: Q04DX003 (ip), vehicle: saline): 94 % of control
T/C [16]: 97 % of control
T/C (endpoint: mean survival time, dose: 400.0 mg/kg/injection, schedule: Q04DX003 (ip), vehicle: saline): 98 % of control

CSc1ncnc2c1ccn2C1OC(COP(=O)(O)O)C(O)C1O (stereo unspecified)
T/C (endpoint: mean survival time, dose: 12.5 mg/kg/injection, schedule: Q01DX005 (ip), vehicle: water): 105 % of control
T/C [21]: 108 % of control and 111 % of control
T/C [22]: 114 % of control and 109 % of control
T/C (endpoint: mean survival time, dose: 150.0 mg/kg/injection, schedule: Q01DX005 (ip), vehicle: water): 121 % of control

CNc1ncnc2c(C3OC(CO)C(O)C3O)[nH]nc12 (stereo unspecified)
T/C [21]: 108 % of control
T/C [22]: 120 % of control
T/C (endpoint: mean survival time, dose: 100.0 mg/kg/injection, schedule: Q01DX005 (ip), vehicle: water): 96 % of control

CC([NH-])CC[NH-].[Cl][Pt+2][Cl] (stereo unspecified)
T/C [20]: 151 % of control

Cc1nc2c(c(=O)[nH]1)C(c1ccccc1)C(C)(C)O2 (stereo unspecified)
T/C [14]: 96 % of control
T/C [1]: 93 % of control
T/C [15]: 93 % of control
T/C [2]: 96 % of control
T/C [16]: 93 % of control
T/C [17]: 93 % of control

CN(/N=C/c1ccc([N+](=O)[O-])cc1)c1ccccc1
T/C [23]: 100 % of control
T/C [18]: 106 % of control
T/C [24]: 91 % of control

N#Cc1cc(Cl)c(OCc2ccccc2)c(Cl)c1
T/C [23]: 87 % of control
T/C [24]: 101 % of control

NCCC(=O)O
T/C [14]: 98 % of control
T/C [1]: 89 % of control
T/C [15]: 97 % of control
T/C [2]: 104 % of control
T/C [16]: 97 % of control
T/C [17]: 98 % of control
